# Laboratory results published in patent US20190083521A1, “COMBINATION THERAPY FOR TREATING CANCER” (Epizyme, Inc., priority 2014, published 2019).
# Like-named read-outs stand apart in the source and are kept apart here.
# Tests used:
# EOL-1 (MLL-PTD) cells = test: Combination proliferation assay with Compound A2 (Chou-Talalay CI); format: cell-based, human
# Method: (§1) Graphs representing values of combination index (CI) versus Fractional effect (Fa) known as Fa-CI plots were generated and synergy was evaluated.
# (§2) Viability was determined using CellTiter-Glo® (Promega).
# KOPM-88 (MLL-PTD) cells = test: as above; format: cell-based, human
# Method: as §1, §2
# MV4-11 (MLL-AF4) cells = test: Combination proliferation assay with Compound A2 (CellTiter-Glo, Chou-Talalay CI); format: cell-based, human
# Procedure, shortened: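 Viability by CellTiter-Glo ATP luminescence; fraction affected versus DMSO controls; combination index by Chou-Talalay method (CI <1 synergy, >1 antagonism).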
# MOLM-13 (MLL-AF9) cells [1] = test: as above; format: cell-based, human
# Procedure, shortened: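 Viability by CellTiter-Glo ATP luminescence; fraction affected versus DMSO controls, combination index by Chou-Talalay (CI <1 synergy, >1 antagonism).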
# [2] = tested on: SKM-1 (non-MLL-rearranged AML) cells; test: as above; format: cell-based, human
# Method: as §1, §2
# MV4-11 cells were maintained in IMDM supplemented with 10% fetal bovine serum. MOLM-13 and SKM-1 cells were maintained in Roswell Park Memorial Institute medium (RPMI) supplemented with 10% fetal bovine serum. They were cultured in flasks or plates in a humidified 5% CO2 atmosphere.
# Proliferation studies were performed using MOLM-13, MV4-11 and SKM-1 cell lines in vitro to evaluate the cancer cell killing effect of a combination of two agents together on cell growth. Initial proliferation studies were performed to determine the IC50 values of a given compound in each cell line. The cell counts were measured by ATP quantitation using the Promega Cell Titer Glo kit and luminescence values correspond to the amount of ATP in a given well.
# Compounds evaluated for synergy in the co-treatment phase were tested in a range which was bracketed around the IC50's. The compounds were plated to a 96 well plate in a matrix format which includes increasing concentrations of each drug in the combination in a constant ratio, in addition to the effect of each compound alone in the study. Cells were seeded and grown in the log-linear phase for 3 or 7 days in the cotreatment phase. Maximum and minimum inhibition (DMSO alone) controls were used in each plate to calculate fraction affected (Fa) of a test well. DMSO concentration was kept at 0.1% v/v. The drug combination analysis was performed utilizing the Chou-Talalay method. Synergy was determined using the software package Calcusyn by Biosoft. The combination index (CI) is the term used to describe the level of synergy or antagonism in a given test system. A combination index less than one indicates synergy, and a CI greater than one indicates antagonism.
# The drug combination analysis was performed using the Chou-Talalay method. Graphs representing values of combination index (CI) versus Fractional effect (Fa) known as Fa-CI plots were generated and synergy was evaluated.
# SKM-1 cells = test: Example 6 combination screen: 300 nM EPZ-5676 pre-treatment, second compound 72 h, ATPLite, IC50 shift; format: cell-based, human; settings: SKM-1 cells; 300 nM EPZ-5676 pre-treatment (4 + 3 days) vs DMSO, then 2nd compound 72 h; ATPLite; IC50 shift of 2nd compound
# Method: Cells were then equilibrated in incubators for 24 hours before treatment with a second compound. Treated assay plates were incubated with a second compound for 72 hours. After this time, plates were developed for endpoint analysis using ATPLite to measure ATP content, which is used as an indicator of cell viability.
# “N/D” means that IC50 of the second compound could not be determined for both conditions.
# SKM-1 (non-MLLr) cells [3] = test: Example 7 primary screen: 300 nM EPZ-5676 pre-treatment, second compound 72 h, ATPLite, GI100 shift; format: cell-based, human; settings: SKM-1 (non-MLLr); 300 nM EPZ-5676 pre-treatment vs DMSO
# Method: (§3) Cells were split using EPZ-5676 or DMSO containing growth media and further incubated for an additional 3-day pre-treatment time. Cells were finally seeded in growth media containing EPZ-5676 or DMSO in 384-well plates at 500 cell/well density. Cells were then equilibrated in incubators for 24 hours before treatment with a second compound. Treated assay plates were incubated with a second compound for 72 hours. After this time, plates were developed for endpoint analysis using ATPLite to measure ATP content, which is used as an indicator of cell viability.
# (§4) “N/D” means the GI100 of the second compound could not be determined for both conditions and “-” means not tested.
# (§5) Growth Inhibition (GI) as a measure of cell viability: The cell viability of vehicle was measured at the time of dosing the second agent (T0) and after seventy-two hours (T72). A GI reading of 0% represents no growth inhibition—cells treated with test compound as compared to T72 vehicle signals were measured. […] A GI 200% represents complete death of all cells in the culture well. Compounds reaching an activity plateau of GI 200% are considered cytotoxic. GI is calculated by applying the following test and equation: […]
# MOLM-13 (MLL-AF9) cells [4] = test: as above; format: cell-based, human; settings: MOLM-13 (MLL-AF9); 300 nM EPZ-5676 pre-treatment vs DMSO
# Method: as §3, §4, §5
# THP-1 (MLL-AF9) cells = test: Example 7 retest: EPZ-5676 pre-treatment, second compound 72 h, Cell Titer Glo, growth inhibition; format: cell-based; parameters: GI100: unit not given here; settings: NRAS G12D
# [5] = tested on: OCI-AML-4 (MLL-ENL) cells; test: Example 7 primary screen: 300 nM EPZ-5676 pre-treatment, second compound 72 h, ATPLite, GI100 shift; format: cell-based; settings: OCI-AML-4 (MLL-ENL); 300 nM EPZ-5676 pre-treatment vs DMSO
# Method: as §3, §4, §5
# ML-2 (MLL-AF6) cells = test: Example 7 retest: EPZ-5676 pre-treatment, second compound 72 h, Cell Titer Glo, growth inhibition; format: cell-based; parameters: GI100: unit not given here; settings: ML-2 (MLL-AF6), KRAS A146T (het)
# RS4-11 (MLL-AF4) cells = test: as above; format: cell-based; parameters: GI100: unit not given here; settings: RS4-11 (MLL-AF4), Ras mutation status: None known, second compound, 72 h
# SKM-1 (non-MLLr) cells [6] = test: as above; format: cell-based, human; parameters: GI100: unit not given here; settings: SKM-1 (non-MLLr)
# MOLM-13 (MLL-AF9) cells [7] = test: as above; format: cell-based, human; parameters: GI100: unit not given here; settings: MOLM-13 (MLL-AF9)
# [8] = tested on: OCI-AML-4 (MLL-ENL) cells; test: as above; format: cell-based; settings: OCI-AML-4 (MLL-ENL)
# [9] = 300 nM EPZ-5676 pre-treatment vs DMSO
# [10] = KRAS K117N (homo), second compound, 72 h
smiles,measurement,setting,value
Nc1ncn([C@@H]2O[C@H](CO)[C@@H](O)[C@H]2O)c(=O)n1 [Azacitidine],Combination effect with Compound A2 (Table 3),EOL-1 (MLL-PTD) cells; EOL-1 (MLL-PTD),Synergy (Drug synergy was statistically defined by CI values less than 1)
same,Combination effect with Compound A2 (Table 3),KOPM-88 (MLL-PTD) cells; KOPM-88 (MLL-PTD),Synergy (Drug synergy was statistically defined by CI values less than 1)
same,Combination effect with Compound A2,"MV4-11 (MLL-AF4) cells; MV4-11, 7 Day Cotreatment (Example 1)",Synergy (A combination index less than one indicates synergy)
same,Combination effect with Compound A2 (Table 2),MV4-11 (MLL-AF4) cells; MV4-11 MLL-AF4,Synergy (Drug synergy was statistically defined by CI values less than 1)
same,Combination effect with Compound A2 (Table 4),"MOLM-13 (MLL-AF9) cells [1]; MOLM-13 (MLL-AF9), 7 Day Cotreatment Model",Strong Synergy
same,Combination effect with Compound A2 (Table 2),MOLM-13 (MLL-AF9) cells [1]; MOLM-13 MLL-AF9,Synergy (Drug synergy was statistically defined by CI values less than 1)
same,Effect of Compound A2 on antiproliferative activity of the second agent,[2]; SKM-1 non-MLL-rearranged (Example 5),no impact
COc1cccc2c1C(=O)c1c(O)c3c(c(O)c1C2=O)C[C@@](O)(C(C)=O)C[C@@H]3O[C@H]1C[C@H](N)[C@H](O)[C@H](C)O1 [Daunorubicin],Combination effect with Compound A2 (Table 3),EOL-1 (MLL-PTD) cells,Synergy (key: Synergy: Drug synergy was statistically defined by CI values less than 1; Antagonistic: antagonism by CI>1; Additive: additive effect by CI equal to 1)
same,Combination effect with Compound A2 (Table 3),KOPM-88 (MLL-PTD) cells,Synergy (key: Synergy: Drug synergy was statistically defined by CI values less than 1; Antagonistic: antagonism by CI>1; Additive: additive effect by CI equal to 1)
same,Antiproliferative combination effect after Compound A2 washout,MV4-11 (MLL-AF4) cells,maintained
same,Antiproliferative combination effect with Compound A2,MV4-11 (MLL-AF4) cells,synergistic
same,Antiproliferative combination effect after Compound A2 washout,MOLM-13 (MLL-AF9) cells [1],maintained
same,Antiproliferative combination effect with Compound A2,MOLM-13 (MLL-AF9) cells [1],synergistic
same,Combination effect with Compound A2 (Table 2),[2],did not act synergistically
same,Effect of Compound A2 on antiproliferative activity of the second agent,[2],did not affect
O=C(Nc1ccc2[nH]nc(-c3ccncc3)c2c1)[C@@H]1CCN(CC(=O)N2CCN(c3ccc(-c4ncccn4)cc3)CC2)C1 [SCH772984],Summary of Combination Studies: SKM-1,SKM-1 cells,Synergy (considered synergistic if the IC50 value of the second compound decreased by 2-fold or more when EPZ-5676 was added as compared to the DMSO control)
same,"Combination result with EPZ-5676, Primary screen",SKM-1 (non-MLLr) cells [3],Synergy (considered synergistic if the GI100 (Growth inhibition 100) value of the second compound decreased by 2-fold or more when EPZ-5676 was added as compared to the DMSO control)
same,"Combination result with EPZ-5676, Primary screen",MOLM-13 (MLL-AF9) cells [4],Synergy (considered synergistic if the GI100 (Growth inhibition 100) value of the second compound decreased by 2-fold or more when EPZ-5676 was added as compared to the DMSO control)
same,GI50,THP-1 (MLL-AF9) cells,0.06 µM
same,GI100,THP-1 (MLL-AF9) cells,>10
same,"Combination result with EPZ-5676, Primary screen",[5],Synergy (considered synergistic if the GI100 (Growth inhibition 100) value of the second compound decreased by 2-fold or more when EPZ-5676 was added as compared to the DMSO control)
same,Result (combination with EPZ-5676),ML-2 (MLL-AF6) cells,Synergy (considered synergistic if the GI100 (Growth inhibition 100) value of the second compound decreased by 2-fold or more when EPZ-5676 was added as compared to the DMSO control)
same,GI50,"ML-2 (MLL-AF6) cells; second compound, 72 h",0.04 µM
same,GI100,"ML-2 (MLL-AF6) cells; second compound, 72 h",0.26
same,GI50,RS4-11 (MLL-AF4) cells; Homo sapiens,7.24 µM
same,GI100,RS4-11 (MLL-AF4) cells,>10
same,"Combination result with EPZ-5676, Retest",SKM-1 (non-MLLr) cells [6]; [9],Synergy (considered synergistic if the GI100 (Growth inhibition 100) value of the second compound decreased by 2-fold or more when EPZ-5676 was added as compared to the DMSO control)
same,Result (combination with EPZ-5676),SKM-1 (non-MLLr) cells [6]; KRAS K117N (homo),Synergy (considered synergistic if the GI100 (Growth inhibition 100) value of the second compound decreased by 2-fold or more when EPZ-5676 was added as compared to the DMSO control)
same,GI50,SKM-1 (non-MLLr) cells [6]; [10],0.02 µM
same,GI100,SKM-1 (non-MLLr) cells [6]; [10],0.086
same,GI50,"MOLM-13 (MLL-AF9) cells [7]; Homo sapiens, Ras mutation status: None known, second compound, 72 h",0.21 µM
same,"Combination result with EPZ-5676, Retest",MOLM-13 (MLL-AF9) cells [7]; 150 nM EPZ-5676 pre-treatment vs DMSO,Synergy (considered synergistic if the GI100 (Growth inhibition 100) value of the second compound decreased by 2-fold or more when EPZ-5676 was added as compared to the DMSO control)
same,Result (combination with EPZ-5676),MOLM-13 (MLL-AF9) cells [7]; Ras mutation status: None known,Synergy (considered synergistic if the GI100 (Growth inhibition 100) value of the second compound decreased by 2-fold or more when EPZ-5676 was added as compared to the DMSO control)
same,GI100,"MOLM-13 (MLL-AF9) cells [7]; Ras mutation status: None known, second compound, 72 h",0.53
same,"Combination result with EPZ-5676, Retest",[8]; [9],Synergy (considered synergistic if the GI100 (Growth inhibition 100) value of the second compound decreased by 2-fold or more when EPZ-5676 was added as compared to the DMSO control)
same,Result (combination with EPZ-5676),[8]; NRAS Q61R (het),Synergy (considered synergistic if the GI100 (Growth inhibition 100) value of the second compound decreased by 2-fold or more when EPZ-5676 was added as compared to the DMSO control)
same,GI50,"[8]; NRAS Q61R (het), second compound, 72 h",0.07 µM
